{"source": "patent US20190210973A1", "about": "“COMPOUNDS AND METHODS FOR TREATMENT OF CYSTIC FIBROSIS” (The Curators of the University of Missouri, priority 2018, published 2019)", "target": "delF508-CFTR (Homo sapiens, UniProt P13569, DEL508-508)", "sequence (P13569 with tags, fused parts or gaps DEL508-508)": "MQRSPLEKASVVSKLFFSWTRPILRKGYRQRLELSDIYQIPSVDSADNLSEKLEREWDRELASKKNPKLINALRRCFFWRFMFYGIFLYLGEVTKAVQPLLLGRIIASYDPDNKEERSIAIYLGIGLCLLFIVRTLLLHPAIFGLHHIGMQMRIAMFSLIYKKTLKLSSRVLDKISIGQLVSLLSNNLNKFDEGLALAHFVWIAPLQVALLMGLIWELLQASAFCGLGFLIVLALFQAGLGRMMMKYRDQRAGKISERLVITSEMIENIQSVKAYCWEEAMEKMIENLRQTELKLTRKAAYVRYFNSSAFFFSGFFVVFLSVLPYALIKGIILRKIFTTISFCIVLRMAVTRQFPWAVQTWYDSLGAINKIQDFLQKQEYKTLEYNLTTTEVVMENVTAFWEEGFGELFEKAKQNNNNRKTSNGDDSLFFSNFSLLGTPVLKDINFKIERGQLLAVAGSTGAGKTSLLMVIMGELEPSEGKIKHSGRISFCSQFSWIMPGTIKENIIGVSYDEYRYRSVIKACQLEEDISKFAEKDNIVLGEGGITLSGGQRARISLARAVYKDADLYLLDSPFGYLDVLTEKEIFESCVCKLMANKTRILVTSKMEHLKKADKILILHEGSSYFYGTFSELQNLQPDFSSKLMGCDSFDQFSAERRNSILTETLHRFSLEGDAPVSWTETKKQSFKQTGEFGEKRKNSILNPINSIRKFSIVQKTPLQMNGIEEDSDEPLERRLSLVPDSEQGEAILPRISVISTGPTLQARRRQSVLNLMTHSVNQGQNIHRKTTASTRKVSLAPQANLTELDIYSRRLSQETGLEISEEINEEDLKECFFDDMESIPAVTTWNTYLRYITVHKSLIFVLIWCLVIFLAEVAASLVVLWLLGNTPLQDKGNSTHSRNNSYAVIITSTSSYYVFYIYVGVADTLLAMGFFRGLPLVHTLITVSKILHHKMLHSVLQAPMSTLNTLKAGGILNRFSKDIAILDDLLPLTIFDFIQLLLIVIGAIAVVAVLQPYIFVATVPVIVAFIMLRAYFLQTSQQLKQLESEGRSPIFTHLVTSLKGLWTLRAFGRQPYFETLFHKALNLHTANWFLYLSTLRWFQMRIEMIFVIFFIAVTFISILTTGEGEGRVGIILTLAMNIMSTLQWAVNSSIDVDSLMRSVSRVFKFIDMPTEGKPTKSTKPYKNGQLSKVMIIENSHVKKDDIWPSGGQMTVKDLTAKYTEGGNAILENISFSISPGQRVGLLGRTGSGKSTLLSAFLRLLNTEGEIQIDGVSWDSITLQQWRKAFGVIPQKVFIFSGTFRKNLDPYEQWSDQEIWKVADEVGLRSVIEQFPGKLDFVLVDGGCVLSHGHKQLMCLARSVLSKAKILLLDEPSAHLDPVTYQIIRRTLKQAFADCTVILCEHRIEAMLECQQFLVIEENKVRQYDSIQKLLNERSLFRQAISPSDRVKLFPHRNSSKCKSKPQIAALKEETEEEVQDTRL", "assay": "Western blot of delF508-CFTR membrane (surface) expression, Band C", "type": "cell-based", "set-up": "delF508 stably-transfected C127 cells were cultured in DMEM with 10% FBS in 6-well plates; expressed in transfected cells; host or cells: C127 cells stably expressing delF508-CFTR", "details": "for influence on the effect of Lumacaftor (VX-809) on membrane expression of delF508-CFTR (words): added to 3 μM VX-809", "text": "The amount of CFTR proteins in the cell membrane can be determined with Western blot analysis. Like all membrane proteins in the cell, the CFTR protein is synthesized in the endoplasmic reticulum (ER), translocated to the Golgi apparatus for glycosylation before trafficked to the plasma membrane. Because of the addition of complex sugar molecules to CFTR, the molecular weight of “mature” or post-Golgi CFTR in the plasma membrane is higher than that of newly synthesized proteins in the ER. Thus, in Western blot, it is possible to discern two distinct bands: band C representing high molecular weight, mature CFTR, and band B low molecular weight, immature CFTR. While wild-type proteins are present mostly as band C, Class II disease-associated mutations such as delF508 causes a drastic diminution of band C, resulting in an effective decrease of N in the formula N×Po×i. The effects of the reagents (or CFTR correctors) that enhance band C can thus be quantitatively assessed with the Western blot analysis. By the same token, any interactions between different compounds, with positive or negative impact on band C, can be determined with this assay.\nWestern blot experiments were carried out in both transient expression system (CHO cells) and a stable cell line (C127 cells). CHO cells, grown in 35 mm dishes, were transfected with delF508-CFTR construct in pcDNA plasmids using X-tremeGENE (Roche). Six hours after transfection, tested compounds were added to the medium. In case of delF508-CFTR-expressing stable C127 cells, compounds were added to the medium at about 30% confluence. In both cases, cells were lysed 18 hours post drug treatment using 1×SDS loading buffer. Cell lysates were sheared by pushed through 18G needles. Whole cell lysate were separated in 4˜20% gradient gels (Bio-Rad Laboratories) and transferred onto nitrocellulose membranes. The membranes were blocked with 5% milk in TBST buffer (20 mM Tris, 137 mM NaCl, 0.1% Tween 20) at 4° C. overnight. The membranes were then probed with anti-CFTR antibody (AB596 from the Cystic Fibrosis Foundation) and anti-vimentin antibody as a control (Santa Cruz Biotechnology) at room temperature for two hours. The membranes were washed with TBST five times and then incubated with anti-mouse IgG, HRP-linked antibody (Cell Signaling Technology) at room temperature for one hour. The membranes were washed three times with TBST and developed with chemiluminescence reagent (Thermo Scientific). The luminescence was detected and quantified by a Molecular Image Chemi Doc (Bio-Rad Laboratories).\nFor Western blotting experiments, delF508 stably-transfected C127 cells were cultured in DMEM with 10% FBS in 6-well plates. Different tested compounds were added to the culture medium within 24 hours of passage to the desired concentration. Cells were lysed 18 hours post drug treatment using 1×SDS loading buffer. Cell lysates were sheared by pushed through 18G needles. Whole cell lysates were separated in 4-20% gradient gels (Bio-Rad Laboratories) and transferred onto nitrocellulose membranes. The membranes were blocked with 5% milk in TBST buffer (20 mM Tris, 137 mM NaCl, 0.1% Tween 20) at 4° C. overnight. The membranes were then probed with anti-CFTR antibody (AB660 from CFTR foundation) and anti-vimentin antibody as a loading control (Santa Cruz Biotechnology) at room temperature for two hours. The membranes were washed with TBST five times and then incubated with anti-mouse IgG, HRP linked antibody (Cell Signaling Technology) at room temperature for one hour. The membranes were washed three times with TBST and developed with chemiluminescence reagent (Thermo Scientific). The luminescence was detected by a Molecular Image Chemi Doc (Bio-Rad Laboratories). […]", "note": "Where “and” joins values, the source holds several entries; their conditions need not be identical. Equal values may be shown once. Entries after “also recorded” stand apart in the source; their conditions may differ.", "data": [{"molecule": "CC(C)(C)c1cc(C(C)(C)C)c(NC(=O)c2c[nH]c3ccccc3c2=O)cc1O", "note": "[VX-770, Ivacaftor, reference compound]", "values": [{"measurement": "surface expression of delF508-CFTR (Band C, corrected to vimentin, DMSO = 100)", "setting": "3 μM VX-809 + 1 μM VX-770, C127 cells, lane 6, one value per experiment series", "value": "334 ± 81, N = 5 and 182 ± 57, N = 4 and 172 ± 50, N = 4"}, {"measurement": "influence on the effect of Lumacaftor (VX-809) on membrane expression of delF508-CFTR (words)", "value": "dampens this effect; also recorded: dampens the effect of VX-809"}, {"measurement": "influence on the effect of Lumacaftor (VX-809) on membrane expression of delF508-CFTR (words)", "setting": "listed as Ivacaftor", "value": "diminishes the effect of Lumacaftor"}]}]}
